# Data as given in ChEMBL document CHEMBL1201862, “PubChem BioAssay data set” (2004).
#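 Grown in 96-well plates, cells were treated for 48 hours with each compound at five concentrations. Insufficient inhibition: endpoint recorded as highest concentration tested. Here, GI50 denotes the concentration required for 50% inhibition of growth.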 Active and inactive are the calls of the source. Rule as the data show it: active = GI50 up to about 1.1 µM and inactive = higher.
# Columns and labels:
# Test in all cases: NCI anticancer screen, dose series, 48 h
# [1] = system: 786-0
# [2] = system: A498
# [3] = system: A549
# [4] = system: ACHN
# [5] = system: CAKI-1
# [6] = system: CCRF-CEM
# [7] = system: COLO 205
# [8] = system: DLD-1
# [9] = system: DMS-114
# [10] = system: DMS-273
# [11] = system: EKVX
# [12] = system: HCC 2998
# [13] = system: HCT-116
# [14] = system: HCT-15
# [15] = system: HL-60
# [16] = system: HOP-18
# [17] = system: HOP-62
# [18] = system: HT-29
# [19] = system: IGROV-1
# [20] = system: K562
# [21] = system: KM-20L2
# [22] = system: KM12
# [23] = system: LOX IMVI
# [24] = system: LXFL 529
# [25] = system: M14
# [26] = system: M19-MEL
# [27] = system: MOLT-4
# [28] = system: Malme-3M
# [29] = system: NCI-H226
# [30] = system: NCI-H23
# [31] = system: NCI-H460
# [32] = system: NCI-H522
# [33] = system: OVCAR-3
# [34] = system: OVCAR-5
# [35] = system: OVCAR-8
# [36] = system: RPMI-8226
# [37] = system: RXF 393
# [38] = system: SF-268
# [39] = system: SF-295
# [40] = system: SF-539
# [41] = system: SK-MEL-28
# [42] = system: SK-MEL-2
# [43] = system: SK-MEL-5
# [44] = system: SK-OV-3
# [45] = system: SN12C
# [46] = system: SNB-19
# [47] = system: SNB-75
# [48] = system: SNB-78
# [49] = system: SR
# [50] = system: SW-620
# [51] = system: TK-10
# [52] = system: U-251
# [53] = system: UACC-257
# [54] = system: UACC-62
# [55] = system: UO-31
# [56] = system: XF498
# [57] = system: HOP-92
# [58] = system: OVCAR-4
# [59] = system: RXF 631
smiles,measurement,setting,value
N#CC(C#N)=Cc1cccc(Oc2ccccc2)c1,GI50,[1],18.6 µM (inactive)
same,GI50,[2],> 63.2 µM (inactive)
same,GI50,[3],70.3 µM (inactive)
same,GI50,[4],18.2 µM (inactive)
same,GI50,[5],25.6 µM (inactive)
same,GI50,[6],20.6 µM (inactive)
same,GI50,[7],29 µM (inactive)
same,GI50,[8],22.5 µM (inactive)
same,GI50,[9],26.2 µM (inactive)
same,GI50,[10],19 µM (inactive)
same,GI50,[11],54.2 µM (inactive)
same,GI50,[12],28.4 µM (inactive)
same,GI50,[13],17.1 µM (inactive)
same,GI50,[14],35.1 µM
same,GI50,[15],18.5 µM (inactive)
same,GI50,[16],16.7 µM (inactive)
same,GI50,[17],23.4 µM (inactive)
same,GI50,[18],22.7 µM (inactive)
same,GI50,[19],26.8 µM (inactive)
same,GI50,[20],23.7 µM (inactive)
same,GI50,[21],37.4 µM (inactive)
same,GI50,[22],22.3 µM (inactive)
same,GI50,[23],20.6 µM (inactive)
same,GI50,[24],18.5 µM (inactive)
same,GI50,[25],19.6 µM (inactive)
same,GI50,[26],27.5 µM (inactive)
same,GI50,[27],25 µM (inactive)
same,GI50,[28],20.1 µM (inactive)
same,GI50,[29],33 µM (inactive)
same,GI50,[30],14.9 µM (inactive)
same,GI50,[31],25.5 µM (inactive)
same,GI50,[32],21.2 µM (inactive)
same,GI50,[33],23 µM (inactive)
same,GI50,[34],> 67.1 µM (inactive)
same,GI50,[35],19.1 µM (inactive)
same,GI50,[36],20.9 µM (inactive)
same,GI50,[37],17.7 µM (inactive)
same,GI50,[38],19.1 µM (inactive)
same,GI50,[39],20.2 µM (inactive)
same,GI50,[40],18.4 µM (inactive)
same,GI50,[41],13.8 µM (inactive)
same,GI50,[42],21.2 µM (inactive)
same,GI50,[43],18.9 µM (inactive)
same,GI50,[44],71.6 µM (inactive)
same,GI50,[45],22.5 µM (inactive)
same,GI50,[46],22 µM (inactive)
same,GI50,[47],29.2 µM (inactive)
same,GI50,[48],29.2 µM (inactive)
same,GI50,[49],8.93 µM (inactive)
same,GI50,[50],25.6 µM (inactive)
same,GI50,[51],31.7 µM (inactive)
same,GI50,[52],13.6 µM (inactive)
same,GI50,[53],16.8 µM (inactive)
same,GI50,[54],22.3 µM (inactive)
same,GI50,[55],15.9 µM (inactive)
same,GI50,[56],20.2 µM (inactive)
CC(=O)OC1(C#N)CC2OC1C1NC21 (configuration not stated),GI50,[1],> 100 µM (inactive)
same,GI50,[2],> 100 µM (inactive)
same,GI50,[3],> 100 µM (inactive)
same,GI50,[4],> 100 µM (inactive)
same,GI50,[5],> 100 µM (inactive)
same,GI50,[6],> 100 µM (inactive)
same,GI50,[7],> 100 µM (inactive)
same,GI50,[8],> 100 µM (inactive)
same,GI50,[9],> 100 µM (inactive)
same,GI50,[11],> 100 µM (inactive)
same,GI50,[12],> 100 µM (inactive)
same,GI50,[13],> 100 µM (inactive)
same,GI50,[14],> 100 µM
same,GI50,[15],> 100 µM (inactive)
same,GI50,[17],> 100 µM (inactive)
same,GI50,[57],> 100 µM (inactive)
same,GI50,[19],> 100 µM (inactive)
same,GI50,[20],> 100 µM (inactive)
same,GI50,[21],> 100 µM (inactive)
same,GI50,[23],> 100 µM (inactive)
same,GI50,[24],> 100 µM (inactive)
same,GI50,[25],> 100 µM (inactive)
same,GI50,[26],> 100 µM (inactive)
same,GI50,[27],> 100 µM (inactive)
same,GI50,[28],> 100 µM (inactive)
same,GI50,[29],> 100 µM (inactive)
same,GI50,[30],> 100 µM (inactive)
same,GI50,[31],> 100 µM (inactive)
same,GI50,[32],> 100 µM (inactive)
same,GI50,[58],> 100 µM (inactive)
same,GI50,[34],> 100 µM (inactive)
same,GI50,[35],> 100 µM (inactive)
same,GI50,[36],> 100 µM (inactive)
same,GI50,[37],> 100 µM (inactive)
same,GI50,[59],> 100 µM (inactive)
same,GI50,[38],> 100 µM (inactive)
same,GI50,[40],> 100 µM (inactive)
same,GI50,[41],> 100 µM (inactive)
same,GI50,[42],> 100 µM (inactive)
same,GI50,[43],> 100 µM (inactive)
same,GI50,[44],> 100 µM (inactive)
same,GI50,[45],> 100 µM (inactive)
same,GI50,[46],> 100 µM (inactive)
same,GI50,[47],> 100 µM (inactive)
same,GI50,[48],> 100 µM (inactive)
same,GI50,[50],> 100 µM (inactive)
same,GI50,[51],> 100 µM (inactive)
same,GI50,[52],> 100 µM (inactive)
same,GI50,[54],> 100 µM (inactive)
same,GI50,[55],> 100 µM (inactive)
same,GI50,[56],> 100 µM (inactive)
